Where no end group is shown, it is not given here.
Assays:
[1] = Zinc solubility of peptide-Zn complexes during simulated gastrointestinal digestion; details: intestinal phase, from 120 to 240 min; PAR method
[2] = Zn-chelating ability (4-(2-Pyridinazo)-resorcinol colorimetric method); type: physicochemical; details: 350 μg sample, zinc sulfate 0.25 mmol/L, HEPES-KOH, DTT, 37 °C, 12 min; PAR method, 500 nm; reduction of zinc ions per mass of sample; mean ± SD, n at least 3
Method: NOBAH peptides (350 μg), 0.5 mL zinc sulfate solution (0.25 mmol/L), 0.5 mL DTT (8 mmol/L), 1 mL HEPES-KOH buffer (100 μmol/L), and 8 mL dH2O were mixed thoroughly. After stirring at 37 °C and 175 r/min for 12 min, 1 mL of reaction solution was sucked out and used for zinc concentration determination using the 4-(2-Pyridinazo)-resorcinol method. The standard regression curve of zinc concentration (x, μg/mL) with the absorbance at 500 nm (y) was y = 0.0901n(x) + 0.1012, R^2 = 0.9802 [27]. The zinc chelation rate of the sample was defined as the reduction of zinc ions in the reaction solution per mass of the sample (mg/g).
Amino acid sequence identification was conducted on a Q Exactive hybrid quadrupole orbitrap mass spectrometer (Thermo Fisher, Bremen, Germany) according to the description of Li et al.. Peak-Studio-7.5-De-Novo™ software (Bioinformatics Solutions, Inc., Waterloo, ON, Canada) was employed to analyze data from the mass spectrometer. The National Center for Biotechnology Information Database (Bethesda, MD, USA) was used for the verification of the obtained sequences. The PAR colorimetric method was employed to measure the Zn-chelating ability of the obtained sequences. Potential antihypertensive effects were predicted using the database AHTPDB [29]. […] Moreover, the physicochemical characteristics of the obtained peptides were analyzed with the database AHTPDB.

ACE [3] = biological target: T1, ACE (Oryctolagus cuniculus, UniProt P12822); test: ACE inhibition capacity (HHL substrate, hippuric acid at 228 nm); type: biochemical; details: synthesized peptide; ACE 25 mU, HHL 8.3 mmol/L, 37 °C, 60 min, absorbance 228 nm; from regression of inhibition vs concentration; n at least 3; read-out: ACE-inhibitory activity (IC50)
T1 construct: purchased Sigma (St. Louis, MO, USA)
T1 sequence (P12822 34-1310): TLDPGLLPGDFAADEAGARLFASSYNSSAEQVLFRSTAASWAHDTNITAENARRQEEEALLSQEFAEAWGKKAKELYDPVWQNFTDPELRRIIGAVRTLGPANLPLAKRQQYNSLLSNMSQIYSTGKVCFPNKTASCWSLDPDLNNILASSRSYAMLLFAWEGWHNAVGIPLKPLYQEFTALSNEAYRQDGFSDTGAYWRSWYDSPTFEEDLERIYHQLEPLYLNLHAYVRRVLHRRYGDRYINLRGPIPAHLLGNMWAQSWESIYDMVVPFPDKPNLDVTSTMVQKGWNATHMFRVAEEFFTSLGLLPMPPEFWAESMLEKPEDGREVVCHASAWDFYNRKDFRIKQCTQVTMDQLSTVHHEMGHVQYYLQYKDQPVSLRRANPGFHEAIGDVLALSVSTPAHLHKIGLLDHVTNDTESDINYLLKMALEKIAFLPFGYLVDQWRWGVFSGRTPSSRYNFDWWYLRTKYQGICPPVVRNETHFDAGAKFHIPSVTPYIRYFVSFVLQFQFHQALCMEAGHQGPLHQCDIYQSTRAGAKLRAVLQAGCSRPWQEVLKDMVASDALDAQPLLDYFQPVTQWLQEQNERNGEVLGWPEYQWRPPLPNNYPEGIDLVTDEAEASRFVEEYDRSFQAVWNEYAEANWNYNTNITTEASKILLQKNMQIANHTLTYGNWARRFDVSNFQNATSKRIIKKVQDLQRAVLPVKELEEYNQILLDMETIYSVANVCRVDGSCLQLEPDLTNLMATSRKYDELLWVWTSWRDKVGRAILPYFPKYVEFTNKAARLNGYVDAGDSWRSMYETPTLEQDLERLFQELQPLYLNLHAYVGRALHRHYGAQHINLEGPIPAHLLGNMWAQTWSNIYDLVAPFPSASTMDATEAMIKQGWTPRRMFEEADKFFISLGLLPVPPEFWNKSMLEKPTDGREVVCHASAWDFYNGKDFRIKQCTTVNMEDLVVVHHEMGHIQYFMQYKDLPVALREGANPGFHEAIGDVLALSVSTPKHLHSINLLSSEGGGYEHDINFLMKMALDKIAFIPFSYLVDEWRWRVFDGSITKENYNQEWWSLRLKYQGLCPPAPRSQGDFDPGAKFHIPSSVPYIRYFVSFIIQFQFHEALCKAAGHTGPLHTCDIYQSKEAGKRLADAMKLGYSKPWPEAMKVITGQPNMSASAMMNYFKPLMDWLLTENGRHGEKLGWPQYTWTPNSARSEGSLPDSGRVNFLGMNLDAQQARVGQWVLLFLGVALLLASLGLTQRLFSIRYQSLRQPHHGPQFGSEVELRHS
Method: Briefly, ACE (25 mU) was pre-incubated at 37 °C for 10 min. Then, ACE (75 µL), 225 µL of HHL (8.3 mmol/L), and peptide solution (75 µL) were mixed and stirred at 75 r/min and 37 °C for 60 min [28]. The reaction was stopped through the addition of 0.375 mL of HCl (1 mol/L). Next, 2.1 mL of ethyl acetate was added to extract the produced hippuric acid. After centrifugation at 14,000× g for 150 s, 1 mL of the upper solution (ethyl acetate extraction) was transferred into a glass test tube and heated at 120 °C for 32 min. Then, deionized water (1 mL) was added and determined at 228 nm. The control group was subjected to the same procedures but without samples. The inhibition ability of the samples toward ACE was defined as the percentage of the difference in absorbance at 228 nm between the sample and control compared to the absorbance of the control at 228 nm. The concentration of peptides needed to inhibit half of ACE activity was defined as IC50.

ACE [4] = system: ACE; set-up: method as in 2 sources, one per row (each row's own in cited_ref): ref [24] = [24]; PMID 32220144; doi:10.1111/1750-3841.15115; 24. Zheng Y. Wang X. Zhuang Y. Li Y. Shi P.Q. Tian H. Li X.T. Chen X. Isolation of novel ACE-inhibitory peptide from naked oat globulin hydrolysates in silico approach: Molecular docking, in vivo anti ||| ref [4],[35] = [4]; doi:10.1016/j.lwt.2022.114008; 4. Renjuan L. Xiuli Z. Liping S. Yongliang Z. Identification, in silico screening, and molecular docking of novel ACE inhibitory peptides isolated from the edible symbiot Boletus griseus-Hypomyces chr || [35]; doi:10.1016/j.lwt.2022.113196; 35. Wei G. Zhao Q. Wang D. Fan Y. Shi Y. Huang A. Novel ACE inhibitory, antioxidant and α-glucosidase inhibitory peptides identified from fermented rubing cheese through peptidomic and molecular docki; details: literature comparison; ref [4],[35]; read-out: ACE inhibition IC50; cited from earlier work

Molecule	IC50 (ACE [3])	IC50 (ACE [4])	further results
O=C([O-])[C@H](O)[C@@H](O)[C@H](O)[C@H](O)CO.O=C([O-])[C@H](O)[C@@H](O)[C@H](O)[C@H](O)CO.[Zn+2] [zinc gluconate, Zinc gluconate]	–	–	Zinc solubility compared with zinc sulfate [1]: higher zinc solubility than that of zinc sulfate
GTTGGMGT [peptide identified in NOBAH-6-D]	–	–	Zinc chelating capacity [2]: 3.36 ± 0.16 e mg/g
GYHGH [GYHGH, Gly-Tyr-His-Gly-His]	322 µM	–	–
LFRPE	–	11.3 µM	–
QPHQPL [peptide identified in rubing cheese]	–	464 µM	–
QYVPF [QYVPF, Gln-Tyr-Val-Pro-Phe]	243 µM	–	–

From publication PMC10252509, “Study on the In Silico Screening and Characterization, Inhibition Mechanisms, Zinc-Chelate Activity, and Stability of ACE-Inhibitory Peptides Identified in Naked Oat Bran Albumin Hydrolysates” (Foods, 2023)
